Results on 2 compounds are retold here after patent US12329780B2, “Acute and chronic mitochondrial electron transport chain dysfunction treatments and graphenic materials for use thereof” (WILLIAM MARSH RICE UNIVERSITY, priority 2017, dated 2025).

A short description of series [1]: Deferoxamine degradation in solution by 262 nm UV absorbance. The format is physicochemical. The text has this:
FIG. 12 is a graph in which Y-axis is units of deferoxamine remaining in solution through monitoring of the 262 nm absorbance by UV spectroscopy. Trend line 1203 illustrates deferoxamine degradation in PBS solution (DEF/PBS). Trend line 1201 illustrates the degradation of deferoxamine in a PBS solution and dilute PEG-HCC (DEF/PEG). Trend line 1202 illustrates deferoxamine degradation in a PBS that had nitrogen gas bubbled through it (DEF/N2).
An additional advantage of this formulation is that it prevents the oxidative breakdown of the deferoxamine molecule, likely through an interaction with the antioxidant capacity of the parent nanomaterial (FIG. 12). This is a tremendous advantage clinically because current deferoxamine has a short shelf life when prepared for intravenous administration, which could be dramatically extended through this formulation and thereby be useful for settings other than the hospital, such as in a battle field, automobile trauma, or other setting in which tissue injury must be rapidly treated.

For series [2] the following is noted: administered intravenously by itself; cited from earlier work.
Series [3] concerns the target ferricytochrome C (CytCox) (Homo sapiens, UniProt P99999). Put plainly: ETS kinetics: reduction of ferricytochrome C by NADH. In kind it is biochemical. Particulars: 4 mg/L catalyst, CytCox 40 μM, NADH 0-5 mM.
Series [4] can be described thus: Midpoint reduction potential. In kind it is physicochemical. From the text: PEG-HCCs and MB are electrochemically similar with respect to midpoint reduction potentials of +11 mV and ˜0 mV respectively, although PEG-HCCs have a much broader range. PEG-HCCs appear to have similar effects on the electron transport chain as described for MB.
The subject of series [5] is bEnd0.3 murine cerebrovascular endothelial cells. The series is described as follows: Hydrogen peroxide challenge assay in bEnd.3 cells (Calcein AM live cell counts). The format is cell-based. The following applies: MB 0, 5, 10 and 20 μM, with or without 100 μM H2O2. The procedure:
The differential properties of MB and PEG-HCCs were tested by using a hydrogen peroxide challenge assay in cultured cells. Hydrogen peroxide exerts toxic effects on endothelial cells through at least four routes: hydroxyl and superoxide radical formation by reacting with reduced species, nitric oxide synthase (NOS) and NADPH oxidase (NOX) stimulation and uncoupling, modulation of mitochondrial permeability, and the Fenton reaction. This employs administering the test agent after the hydrogen peroxide since efficacy under post-injury conditions would be critical for clinical translation.
PEG-HCCs and MB were compared in two standard hydrogen peroxide challenge assays. In the first experiment, bEnd0.3 murine cerebrovascular endothelial cells were treated with PEG-HCCs, and 100 μM H2O2 with and without 8 mg/L PEG-HCCs. The cells were incubated overnight and then then detached and counted using a hemocytometer and Calcein AM to label live cells. (Live cell counts n=32).
A similar assay was performed with MB at 0, 5, 10 and 20 μM given 15 minutes after initial exposure to 100 μM H2O2. […] The inclusion of 100 μM H2O2 further reduced survival.

Sequence of ferricytochrome C (CytCox) (P99999 whole entry): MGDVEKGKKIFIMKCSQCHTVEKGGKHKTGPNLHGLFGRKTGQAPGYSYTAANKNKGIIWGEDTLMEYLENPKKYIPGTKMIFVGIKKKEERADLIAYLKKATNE

In the case of `CC(=O)N(O)CCCCCNC(=O)CCC(=O)N(O)CCCCCNC(=O)CCC(=O)N(O)CCCCCN` [deferoxamine], the “Deferoxamine degradation in solution” value in series [1] (PBS solution with dilute PEG-HCC (DEF/PEG)) and in series [1] (PBS with nitrogen gas bubbled through (DEF/N2)) was “no detectable degradation” in each case. Besides, in series [2], the “Half-life in circulation (t1/2)” value is given as “≈ 0.3 h”.
`CN(C)c1ccc2nc3ccc(=[N+](C)C)cc-3sc2c1` [MB, Methylene blue]: the maximum rate (Vmax) (usually the rate approached at saturating substrate) in series [3] stood at 1.432e-07 M/s. In addition, the Midpoint reduction potential in series [4] is given as around 0 mV. In addition, the Cell survival result in series [5] is on record as “dose-dependent reduction in cell survival”.
